Data taken from article PMC3720870, “Chiral Hydroxylation at the Mononuclear Nonheme Fe(II) Center of 4-(S) Hydroxymandelate Synthase – A Structure-Activity Relationship Analysis” (PLoS ONE, 2013).

Molecular target: T1, Hms (Streptomyces coelicolor, UniProt Q9Z4X7)
T1 construct: gene SCO3229; full-length, C-terminal Strep-tag II kept, expressed in E. coli BL21(DE3) from pKYB1; monomer, ~45 kDa
T1 sequence (Q9Z4X7 1-371): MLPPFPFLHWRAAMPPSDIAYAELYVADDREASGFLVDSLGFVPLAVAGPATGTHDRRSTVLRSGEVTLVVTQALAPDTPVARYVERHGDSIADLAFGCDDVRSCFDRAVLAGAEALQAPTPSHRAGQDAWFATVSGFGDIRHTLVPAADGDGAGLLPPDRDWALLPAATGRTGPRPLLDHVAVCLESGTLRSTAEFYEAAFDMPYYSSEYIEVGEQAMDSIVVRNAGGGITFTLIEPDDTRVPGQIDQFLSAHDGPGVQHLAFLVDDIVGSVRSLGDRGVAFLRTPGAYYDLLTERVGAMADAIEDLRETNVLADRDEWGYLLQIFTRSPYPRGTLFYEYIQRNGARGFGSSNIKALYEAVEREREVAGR
Assay: O2 consumption, micro-optode, steady state
Format: biochemical
Details: apparent constant at air saturation; 20 mM Tris/HCl pH 7.5, 25 °C; no added Fe(II)

Km [µM]	SMILES
35 ± 20	O=C(O)C(=O)CCc1ccccc1 [OPB, 2-Oxo-4-phenylbutanoic acid]
353 ± 87	O=C(O)C(=O)Cc1ccccc1 [PP, Phenylpyruvic acid]
160 ± 70	COc1ccc(CC(=O)C(=O)O)cc1 [VII, p-Methoxyphenylpyruvic acid]
